Source: ChEMBL document CHEMBL1201862, “PubChem BioAssay data set” (2004)
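These data come from cells grown in 96-well plates and exposed to compound for 48 hours at five concentrations. Here, GI50 denotes the concentration required for 50% inhibition of growth.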 The source made the active and inactive calls. Rule as the data show it: active = GI50 up to about 1.1 µM and inactive = higher.

Columns and labels:
Assay in all cases: NCI anticancer screen, dose series, 48 h
M19-MEL = tested on: M19-MEL
HOP-18 = tested on: HOP-18
DMS-273 = tested on: DMS-273
XF498 = tested on: XF498
RXF 631 = tested on: RXF 631
Hs-578T = tested on: Hs-578T
MDA-N = tested on: MDA-N
PC-3 = tested on: PC-3
MCF7 = tested on: MCF7

SMILES	GI50 (M19-MEL)	GI50 (HOP-18)	GI50 (DMS-273)	GI50 (XF498)	GI50 (RXF 631)	GI50 (Hs-578T)	GI50 (MDA-N)	GI50 (PC-3)	GI50 (MCF7)
c1cc2nnsc2s1	> 100 µM (inactive)	> 100 µM (inactive)	70.6 µM (inactive)	> 100 µM (inactive)	–	–	–	–	–
CC1=C(C(=O)CC(=O)C(=O)Nc2ccccc2C(F)(F)F)Sc2ccccc2N1	–	–	40.2 µM (inactive)	31.5 µM (inactive)	86.5 µM (inactive)	–	–	–	–
Nc1nc(-c2ccco2)cc(-c2ccc(CO)o2)n1	> 100 µM (inactive)	–	> 100 µM (inactive)	> 100 µM (inactive)	–	–	–	–	–
CC12C/C(=C\c3ccccc3)C(=O)C3C1CCCC32	58.6 µM (inactive)	> 100 µM (inactive)	42.6 µM (inactive)	> 100 µM (inactive)	> 100 µM (inactive)	–	–	–	–
CCOC(=O)c1ccc(/N=N/c2cc(C(=O)OCC)ccc2O)cc1	> 100 µM (inactive)	> 100 µM (inactive)	> 100 µM (inactive)	2.13 µM (inactive)	–	–	–	–	–
CC1(C)C2C/C(=C\c3ccccc3)C(=O)C1C2 (configuration not stated)	> 100 µM (inactive)	–	> 100 µM (inactive)	–	> 100 µM (inactive)	–	–	–	–
O=C(CC1(O)C(=O)Nc2c(Cl)cc(Cl)cc21)c1cccc2ccccc12 (configuration not stated)	–	17.9 µM (inactive)	13.7 µM (inactive)	20.4 µM (inactive)	18.1 µM (inactive)	–	–	–	–
O=c1c2cc(Br)cc(Br)c2nc(CCCl)n1CCO	94.8 µM (inactive)	–	–	41.7 µM (inactive)	> 100 µM (inactive)	–	–	–	–
O=C1C[C@@H]2[C@@H](c3ccccc3)[C@@H]3C(=O)c4ccccc4NC(=O)[C@H]3[C@]2(O)c2ccccc2N1	> 100 µM (inactive)	–	> 100 µM (inactive)	> 100 µM (inactive)	–	–	–	–	–
C/C(=N\NC(=S)N1CCN(c2ccccn2)CC1)c1ncccn1	0.638 µM (active)	1.64 µM (inactive)	0.0114 µM (active)	0.0247 µM (active)	–	1.87 µM (inactive)	6.93 µM (inactive)	4.37 µM (inactive)	0.0108 µM (active)
Cc1cc(NS(=O)(=O)c2ccc(Nc3c4ccccc4nc4c(C(=O)N5CCN(CCO)CC5)cccc34)cc2)no1	> 100 µM (inactive)	> 100 µM (inactive)	> 100 µM (inactive)	> 100 µM (inactive)	–	–	–	–	–
CCN(CC)CCOc1ccc(/C=C(\C#N)c2ccc(OCCN(CC)CC)cc2)cc1	14.8 µM (inactive)	25.6 µM (inactive)	13.6 µM (inactive)	13.4 µM (inactive)	–	–	–	–	–
N#Cc1cc([N+](=O)[O-])ccc1NC(=O)C(=O)Nc1n[nH]c(N)n1	> 100 µM (inactive)	–	> 100 µM (inactive)	> 100 µM (inactive)	> 100 µM (inactive)	–	–	–	–
O=C1N[C@@H]([C@H]2CC[C@H](Cl)CN2)C(=O)N[C@H]1[C@H]1CC[C@H](Cl)CN1	2.47 µM (inactive)	5.86 µM (inactive)	0.205 µM (active)	0.184 µM (active)	–	5.06 µM (inactive)	0.555 µM (active)	0.804 µM (active)	0.195 µM (active)
CCOC(=O)C/C(N)=C(\C#N)C(=O)OCC	> 100 µM (inactive)	> 100 µM (inactive)	> 100 µM (inactive)	> 100 µM (inactive)	> 100 µM (inactive)	–	–	–	–
CCOC(OC(C)=O)[C@@H]1C=C[C@H](C)N(c2ccc([N+](=O)[O-])cc2)O1 (some centres not stated)	2.14 µM (inactive)	8.79 µM (inactive)	3.19 µM (inactive)	14.6 µM (inactive)	4.98 µM (inactive)	–	–	–	–
Nc1ccccc1C(=O)/C=C/c1ccccc1O	72.3 µM (inactive)	8.34 µM (inactive)	–	> 100 µM (inactive)	55.8 µM (inactive)	–	–	–	–
CC(=O)NC(CCCNCc1ccccc1)C(=O)NCc1ccccc1 (configuration not stated)	> 100 µM (inactive)	–	> 100 µM (inactive)	> 100 µM (inactive)	> 100 µM (inactive)	–	–	–	–
O=C(C=C1SCCS1)/C=C\c1ccc(Cl)cc1	> 100 µM (inactive)	–	99.3 µM (inactive)	73.8 µM (inactive)	> 100 µM (inactive)	–	–	–	–
CS(=O)(=O)c1nc(N)nc2nc[nH]c12	> 100 µM (inactive)	> 100 µM (inactive)	> 100 µM (inactive)	> 100 µM (inactive)	–	–	–	–	–
CC(=O)CC(=O)Nc1ccccc1[N+](=O)[O-]	> 100 µM (inactive)	> 100 µM (inactive)	> 100 µM (inactive)	> 100 µM (inactive)	–	–	–	–	–
Cn1c(=O)c2ccc(-c3ccc(Br)cc3)nc2n(C)c1=O	> 100 µM (inactive)	> 100 µM (inactive)	> 100 µM (inactive)	> 100 µM (inactive)	> 100 µM (inactive)	–	–	–	–
COc1cc([C@@H]2c3cc4c(cc3[C@@H](NCc3ccccc3F)C3COC(=O)[C@@H]32)OCO4)cc(OC)c1O (some centres not stated)	3.47 µM (inactive)	> 100 µM (inactive)	1.21 µM (inactive)	–	2.18 µM (inactive)	–	–	–	–
Cc1nc2c(o1)/C(=N\c1ccccc1)c1nc(C)oc1/C2=N/c1ccccc1	21.6 µM (inactive)	17.3 µM (inactive)	20 µM (inactive)	18 µM (inactive)	–	–	–	–	–
CCCCCCCCCCCCCCCCOP(=O)(O)Oc1ccc(/C=C\c2ccc(OP(=O)(O)OCCCCCCCCCCCCCCCC)cc2)cc1	38.7 µM (inactive)	70.3 µM (inactive)	25.1 µM (inactive)	–	48.5 µM (inactive)	–	–	–	–
